Patent publication US6849435B2, “Use of VLCFAE for identifying herbicidally active compounds” (Bayer Aktiengesellschaft, priority 2000, dated 2005)
Entries after “also recorded” stand apart in the source; their conditions may differ.

Legend:
[1] = system: C18:1 fatty acid elongation; details: cited from earlier work
Arabidopsis thaliana = test: Herbicide treatment of Arabidopsis thaliana with flufenacet: generation of the fiddlehead phenotype; assay type: in vivo, Arabidopsis thaliana (ecotype Columbia Col-0)
Experimental: Herbicide Treatment of Arabidopsis thaliana With Flufenacet: Generation of the Fiddlehead Phenotype Arabidopsis seeds (ecotype Columbia Col-0), which were stored at 4° C., were sown in soil and cultivated at 22° C.±2° C. under long-day conditions (16 h light/8h dark). Plants 2 weeks old were sprayed with 250 g/ha and 50 g/ha flufenacet and cultivated further at 22° C.±2° C. under long-day conditions (16 h light/8h dark). […] These fusions are very similar to those in the “fiddlehead” mutants.

Structure (SMILES)	inhibition of C18:1 fatty acid elongation [1]	appearance of flowers after recovery (Arabidopsis thaliana; from day 18 after treatment with 250 g/ha and 50 g/ha)	fusion of the rosette leaves (Arabidopsis thaliana; in vivo)	fiddlehead phenotype (fusion of flower organs) (Arabidopsis thaliana; plants 2 weeks old sprayed with 250 g/ha and 50 g/ha, between day 7 and day 11 after treatment)
CN(C)c1cnn(-c2ccccc2)c(=O)c1Cl [BAS 13-338]	inhibit C18:1 fatty acid elongation			
CC(C)N(C(=O)COc1nnc(C(F)(F)F)s1)c1ccc(F)cc1 [flufenacet]		all the flowers appear normal again	leads to fusion of the rosette leaves	fiddlehead phenotype can be induced; also recorded: the flower organs fuse with the uppermost cauline leaves
